Experimental data as given in patent US11834431B2, “Crystals of cyclic amine derivative and pharmaceutical use thereof” (Toray Industries, Inc., priority 2016, dated 2023).

System: spinal nerve ligation model rats (neuropathic pain model rats)
Experiment: Analgesic effect on allodynia in spinal nerve ligation model rats (von Frey, 50% response threshold)
Assay type: in vivo, rat
Conditions: measured 3 hours after administration, 8 days after ligation, compared to negative control group
Description: Analgesic effects of the crystal of compound (I) or the pharmacologically acceptable salt thereof upon neuropathic pain were evaluated using spinal nerve ligation model rats (Kim and Chung, Pain, 1992, vol. 50, p. 355). Form A crystal of compound (I) was used as a crystal of compound (I) or the pharmacologically acceptable salt thereof for evaluation.
The above model rats were prepared as follows. In experiments, 6-to 7-week-old SD male rats were used for 5 to 7 cases per group, and the lumbar skin and muscle of each rat were dissected to expose the L5 and L6 […] under inhalation anesthesia with isoflurane. After ligating the L5 and L6 spinal nerves with silk suture, the wound of each rat was sutured. Thus, a nerve ligation group was prepared. The group in which the nerve was exposed but not ligated was determined to be a sham surgery group.
Allodynia observed in spinal nerve ligation model rats was measured using a von Frey filaments according to a method described in a known publication (Chaplan et al., J. Neurosci. Methods, 1994, vol. 53, p. 55) and a 50% response threshold (g) was determined. Eight days after the ligation surgery, allodynia of the nerve ligation group was measured before oral administration of Form A crystal of compound (I). Rats with a 50% response threshold (average value of the right hind paw and the left hind paw) of 2 g to less than 6 g were considered to have developed allodynia. The rats were divided as neuropathic pain model rats into groups such that there was no significant difference in the 50% response threshold between groups. Allodynia was measured 3 hours after the oral administration of Form A crystal of compound (I), and the analgesic effect was evaluated. Pregabalin was used as a positive control.
Form A crystal of compound (I) was dissolved in water for injection (distilled water) to result in concentrations of 5, 10, and 20 mg/mL, and orally administered in a dose volume of 1 mL per kg body weight. Pregabalin was dissolved in water for injection (distilled water) to result in a concentration of 10 mg/mL and orally administered in a dose volume of 1 mL per kg of body weight. Water for injection (distilled water) was orally administered to the sham surgery group. A group in which water for injection (distilled water) was orally administered to rats in the nerve ligation group was defined as a negative control group.
The horizontal axis represents the solution to be administered in each group, namely, the nerve ligation group or sham surgery group, and the vertical axis represents the 50% response threshold (g) (mean±standard error, n=5 to 7). […]

Measured: improvement of allodynia (50% response threshold)

CN(C)C1CCN(C(=O)C[C@H](O)c2nccn2C)CC1 [Form A crystal, (S)-1-(4-(dimethylamino)piperidin-1-yl)-3-hydroxy-3-(1-methyl-1H-imidazol-2-yl)propan-1-one]
significant improvement: oral 5 mg/kg | oral 10 mg/kg | oral 20 mg/kg
